# Source: patent US20240116910A1, “Heterocycles as WIP1 Inhibitors” (PMV Pharmaceuticals, Inc., priority 2022, published 2024)
# Target: recombinant His-tag Wip1(2-420) protein (amino acids #2-420) (Homo sapiens (Human), UniProt O15297)
# Assay: Wip1(2-420) phosphatase enzyme FDP assay
# Format: biochemical
# Details: fluorescein diphosphate (FDP) substrate, RT 2 hours, fluorescence Ex485/Em535; read-out: WIP1 (Truncated 2-420) FDP Assay: IC50
# Chain of recombinant His-tag Wip1(2-420) protein (amino acids #2-420) (O15297 2-420): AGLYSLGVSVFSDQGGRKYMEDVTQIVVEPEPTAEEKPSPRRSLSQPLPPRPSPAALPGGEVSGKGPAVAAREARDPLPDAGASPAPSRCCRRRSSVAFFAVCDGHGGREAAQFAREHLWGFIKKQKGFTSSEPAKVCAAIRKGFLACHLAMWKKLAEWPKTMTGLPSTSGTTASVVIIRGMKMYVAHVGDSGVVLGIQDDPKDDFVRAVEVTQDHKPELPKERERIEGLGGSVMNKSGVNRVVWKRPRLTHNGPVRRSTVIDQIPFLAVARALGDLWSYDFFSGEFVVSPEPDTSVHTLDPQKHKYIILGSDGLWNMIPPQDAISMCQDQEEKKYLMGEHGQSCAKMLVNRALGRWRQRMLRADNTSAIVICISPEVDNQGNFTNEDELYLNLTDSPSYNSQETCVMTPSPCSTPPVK
row,Structure (SMILES),IC50
1,"Cc1ncc(Cl)cc1NC(Cc1ccccc1)c1ccc(C(=O)N[C@@H](CC2CCCC2)C(=O)NC23CC(F)(C2)C3)s1 (stereo partly drawn) [Compound 212, (2S)-2-[(5-{1-[(5-chloro-2-methylpyridin-3-yl)amino]-2-phenylethyl}thiophen-2-yl)formamido]-3-cyclopentyl-N-{3-fluorobicyclo[1.1.1]pentan-1-yl}propanamide]",0.023 µM
2,"Cc1ncc(Cl)cc1N[C@@H](C)c1ccc(C(=O)N[C@@H](CC2CCC3CC32)C(=O)N[C@H]2C[C@H](F)C2)s1 (stereo partly drawn) [Compound 116, (2S)-3-{bicyclo[3.1.0]hexan-2-yl}-2-({5-[(1S)-1-[(5-chloro-2-methylpyridin-3-yl)amino]ethyl]thiophen-2-yl}formamido)-N-[(1r,3r)-3-fluorocyclobutyl]propanamide]",0.01 µM
3,"COc1ncc(Cl)cc1N[C@H](C)c1ccc(C(=O)N[C@@H](CC2CCCC2)C(=O)NC23CC(C2)C3)s1 [Compound 61, (2S)-N-{bicyclo[1.1.1]pentan-1-yl}-2-({5-[(1R)-1-[(5-chloro-2-methoxypyridin-3-yl)amino]ethyl]thiophen-2-yl}formamido)-3-cyclopentylpropanamide]",0.5 µM
4,"CCNC(=O)[C@H](CC1CCCCC1)NC(=O)c1ccc([C@H](C)Nc2cc(Cl)cnc2C)s1 [Compound 264, (2S)-2-({5-[(1S)-1-[(5-chloro-2-methylpyridin-3-yl)amino]ethyl]thiophen-2-yl}formamido)-3-cyclohexyl-N-ethylpropanamide]",0.007 µM
5,"Cc1ncc(Cl)cc1N[C@H](Cc1ccccc1)c1ccc(C(=O)N[C@@H](CC2CCCC2)C(=O)NC2CC2)s1 [Compound 261, (2S)-2-({5-[(1R)-1-[(5-chloro-2-methylpyridin-3-yl)amino]-2-phenylethyl]thiophen-2-yl}formamido)-3-cyclopentyl-N-cyclopropylpropanamide]",0.04 µM
6,"Cc1ncc(Cl)cc1N[C@@H](C)c1ccc(C(=O)N[C@H](CC2CCCC2)C(=O)Nc2ccnc(Cl)c2)s1 [Compound 142, (2R)-2-({5-[(1S)-1-[(5-chloro-2-methylpyridin-3-yl)amino]ethyl]thiophen-2-yl}formamido)-N-(2-chloropyridin-4-yl)-3-cyclopentylpropanamide]",2.5 µM
7,"Cc1ncc(Cl)cc1N[C@@H](C)c1ccc(C(=O)N[C@@H](CC2CCCC2)C(=O)NC2CCC(O)C2)s1 (stereo partly drawn) [Compound 263, (2S)-2-({5-[(1S)-1-[(5-chloro-2-methylpyridin-3-yl)amino]ethyl]thiophen-2-yl}formamido)-3-cyclopentyl-N-(3-hydroxycyclopentyl)propanamide]",0.013 µM
8,"C[C@@H](Nc1cc(Cl)cnc1C(F)(F)F)c1ccc(C(=O)N[C@@H](CC2CCCC2)C(=O)NC2CC2)s1 [Compound 190, (2S)-2-({5-[(1R)-1-{[5-chloro-2-(trifluoromethyl)pyridin-3-yl]amino}ethyl]thiophen-2-yl}formamido)-3-cyclopentyl-N-cyclopropylpropanamide]",0.224 µM
9,"Cc1ncc(Cl)cc1N[C@@H](C)c1ccc(C(=O)N[C@@H](C(=O)NC23CC(C2)C3)C(C)(C)C)s1 [Compound 247, (2R)-N-{bicyclo[1.1.1]pentan-1-yl}-2-({5-[(1S)-1-[(5-chloro-2-methylpyridin-3-yl)amino]ethyl]thiophen-2-yl}formamido)-3,3-dimethylbutanamide]",> 10 µM
10,"Cc1ncc(Cl)cc1N[C@@H](C)c1ccc(C(=O)N[C@@H](CC2CCCC2)C(=O)Nc2cc(N)ccn2)s1 [Compound 150, (2S)-N-(4-aminopyridin-2-yl)-2-({5-[(1S)-1-[(5-chloro-2-methylpyridin-3-yl)amino]ethyl]thiophen-2-yl}formamido)-3-cyclopentylpropanamide]",0.008 µM
11,"C[C@@H](c1ccc(C(=O)N[C@@H](CC2CCCC2)C(=O)NC23CC(C2)C3)s1)N(C)c1cncc(Cl)c1 [Compound 96, (2S)-N-{bicyclo[1.1.1]pentan-1-yl}-2-({5-[(1S)-1-[(5-chloropyridin-3-yl)(methyl)amino]ethyl]thiophen-2-yl}formamido)-3-cyclopentylpropanamide]",0.076 µM
12,"Cc1ncc(Cl)cc1N[C@@H](C)c1ccc(C(=O)N[C@@H](CC2CCCC2)C(=O)Nc2cnn(CC(F)(F)F)c2)s1 [Compound 147, (2S)-2-({5-[(1S)-1-[(5-chloro-2-methylpyridin-3-yl)amino]ethyl]thiophen-2-yl}formamido)-3-cyclopentyl-N-[1-(2,2,2-trifluoroethyl)-1H-pyrazol-4-yl]propanamide]",0.006 µM
13,"COCc1ncc(Cl)cc1N[C@@H](C)c1ccc(C(=O)N[C@@H](CC2CCCC2)C(=O)NC2CC2)s1 [Compound 226, (2S)-2-({5-[(1S)-1-{[5-chloro-2-(methoxymethyl)pyridin-3-yl]amino}ethyl]thiophen-2-yl}formamido)-3-cyclopentyl-N-cyclopropylpropanamide]",0.011 µM
14,"O=C(N[C@@H](CC1CCCC1)C(=O)NC1CC1)c1ccc([C@H]2CCc3c(Cl)cccc3N2)s1 [Compound 251, (2S)-2-({5-[(2R)-5-chloro-1,2,3,4-tetrahydroquinolin-2-yl]thiophen-2-yl}formamido)-3-cyclopentyl-N-cyclopropylpropanamide]",0.678 µM
15,"C[C@@H](Nc1cc(Cl)nc2ccnn12)c1ccc(C(=O)N[C@@H](CC2CCCC2)C(=O)NC2CC2)s1 [Compound 259, (2S)-2-({5-[(1R)-1-({5-chloropyrazolo[1,5-a]pyrimidin-7-yl}amino)ethyl]thiophen-2-yl}formamido)-3-cyclopentyl-N-cyclopropylpropanamide]",0.013 µM
16,"Cc1ncc(Cl)cc1N[C@@H](C)c1ncc(C(=O)N[C@@H](CC2CCCC2)C(=O)NC23CC(C2)C3)s1 [Compound 310, (2S)-N-{bicyclo[1.1.1]pentan-1-yl}-2-({2-[(1S)-1-[(5-chloro-2-methylpyridin-3-yl)amino]ethyl]-1,3-thiazol-5-yl}formamido)-3-cyclopentylpropanamide]",1.02 µM
17,"Cc1ncc(Cl)cc1N[C@H](C)c1ncc(C(=O)N[C@@H](CC2CCCC2)C(=O)NC23CC(C2)C3)s1 [Compound 126, (2S)-N-{bicyclo[1.1.1]pentan-1-yl}-2-({2-[(1R)-1-[(5-chloro-2-methylpyridin-3-yl)amino]ethyl]-1,3-thiazol-5-yl}formamido)-3-cyclopentylpropanamide]",1.02 µM
18,"Cc1ncc(Cl)cc1N[C@@H](C)c1ccc(C(=O)N[C@@H](C(=O)NC2CC2)C(C)(C)C)s1 [Compound 234, (2R)-2-({5-[(1S)-1-[(5-chloro-2-methylpyridin-3-yl)amino]ethyl]thiophen-2-yl}formamido)-N-cyclopropyl-3,3-dimethylbutanamide]",> 10 µM
19,"Cc1ncc(Cl)cc1N[C@@H](C)c1ccc(C(=O)N[C@@H](CC2CCCC2)C(=O)Nc2ccc(C#N)cc2)s1 [Compound 85, (2S)-2-({5-[(1S)-1-[(5-chloro-2-methylpyridin-3-yl)amino]ethyl]thiophen-2-yl}formamido)-N-(4-cyanophenyl)-3-cyclopentylpropanamide]",0.007 µM
20,"CC(Nc1cc(Cl)cnc1C(N)=O)c1ccc(C(=O)N[C@@H](CC2CCCC2)C(=O)Nc2cnn(C)c2)s1 (stereo partly drawn) [Compound 173, 5-chloro-3-{[1-(5-{[(1S)-2-cyclopentyl-1-[(1-methyl-1H-pyrazol-4-yl)carbamoyl]ethyl]carbamoyl}thiophen-2-yl)ethyl]amino}pyridine-2-carboxamide]",0.008 µM
21,"Cc1ncc(Cl)cc1N[C@@H](c1ccc(C(=O)N[C@@H](CC2CCCC2)C(=O)NC23CC(C2)C3)s1)C(F)(F)F [Compound 186, (2S)-N-{bicyclo[1.1.1]pentan-1-yl}-2-({5-[(1R)-1-[(5-chloro-2-methylpyridin-3-yl)amino]-2,2,2-trifluoroethyl]thiophen-2-yl}formamido)-3-cyclopentylpropanamide]",0.195 µM
22,"CC(Nc1cc(Cl)cnc1C(N)=O)c1ccc(C(=O)N[C@@H](CC2CCCC2)C(=O)NC23CC(C2)C3)s1 (stereo partly drawn) [Compound 172, 3-{[1-(5-{[(1S)-1-({bicyclo[1.1.1]pentan-1-yl}carbamoyl)-2-cyclopentylethyl]carbamoyl}thiophen-2-yl)ethyl]amino}-5-chloropyridine-2-carboxamide]",0.01 µM
23,"C[C@H](Nc1cc(Cl)cnc1C(N)=O)c1ccc(C(=O)N[C@@H](CC2CCCC2)C(=O)NC2CC2)s1 [Compound 228, 5-chloro-3-{[(1S)-1-(5-{[(1S)-2-cyclopentyl-1-(cyclopropylcarbamoyl)ethyl]carbamoyl}thiophen-2-yl)ethyl]amino}pyridine-2-carboxamide]",0.005 µM
24,"O=C(N[C@@H](CC1CCCC1)C(=O)NC1CC1)c1ccc([C@@H]2CCc3c(Cl)cccc3N2)s1 [Compound 250, (2S)-2-({5-[(2S)-5-chloro-1,2,3,4-tetrahydroquinolin-2-yl]thiophen-2-yl}formamido)-3-cyclopentyl-N-cyclopropylpropanamide]",0.301 µM
25,"Cc1ncc(Cl)cc1N[C@@H](C)c1ccc(C(=O)N[C@@H](CC2CCCC2)C(=O)NCC(=O)O)s1 [Compound 93, 2-[(2S)-2-({5-[(1S)-1-[(5-chloro-2-methylpyridin-3-yl)amino]ethyl]thiophen-2-yl}formamido)-3-cyclopentylpropanamido]acetic acid]",0.208 µM
26,"CC[C@@H](Nc1cc(Cl)cnc1C)c1ccc(C(=O)N[C@@H](CC2CCCC2)C(=O)NC23CC(C#N)(C2)C3)s1 [Compound 81, (2S)-2-({5-[(1R)-1-[(5-chloro-2-methylpyridin-3-yl)amino]propyl]thiophen-2-yl}formamido)-N-{3-cyanobicyclo[1.1.1]pentan-1-yl}-3-cyclopentylpropanamide]",0.693 µM
27,"COC[C@H](Nc1cc(Cl)cnc1C)c1ccc(C(=O)N[C@@H](CC2CCCC2)C(=O)NC2CC2)s1 [Compound 159, (2S)-2-({5-[(1S)-1-[(5-chloro-2-methylpyridin-3-yl)amino]-2-methoxyethyl]thiophen-2-yl}formamido)-3-cyclopentyl-N-cyclopropylpropanamide]",0.013 µM
